Results: ChEMBL document CHEMBL1777767, “Efficient radiosynthesis of 2-[(18)f]fluoroadenosine: a new route to 2-[(18)f]fluoropurine nucleosides” (ACS Med Chem Lett, 2010)

Columns and labels:
Format in all cases: ADME, organism-based
Settings in all cases: in vivo, 1 h
Brain = assay: Biodistribution in Sprague-Dawley rat brain at 10.36 to 13.69 MBq, iv after 60 mins by gamma counting
Heart = assay: Biodistribution in Sprague-Dawley rat heart at 10.36 to 13.69 MBq, iv after 60 mins by gamma counting
Spleen = assay: Biodistribution in Sprague-Dawley rat spleen at 10.36 to 13.69 MBq, iv after 60 mins by gamma counting
Intestine = assay: Biodistribution in Sprague-Dawley rat intestine at 10.36 to 13.69 MBq, iv after 60 mins by gamma counting
Thymus = assay: Biodistribution in Sprague-Dawley rat thymus at 10.36 to 13.69 MBq, iv after 60 mins by gamma counting
Blood = assay: Biodistribution in Sprague-Dawley rat blood at 10.36 to 13.69 MBq, iv after 60 mins by gamma counting
Lung = assay: Biodistribution in Sprague-Dawley rat lung at 10.36 to 13.69 MBq, iv after 60 mins by gamma counting
Kidney = assay: Biodistribution in Sprague-Dawley rat kidney at 10.36 to 13.69 MBq, iv after 60 mins by gamma counting
[1] = Biodistribution in Sprague-Dawley rat urine at 10.36 to 13.69 MBq, iv after 60 mins by gamma counting
Liver = assay: Biodistribution in Sprague-Dawley rat liver at 10.36 to 13.69 MBq, iv after 60 mins by gamma counting

SMILES: Nc1nc([18F])nc2c1ncn2[C@@H]1O[C@H](CO)[C@@H](O)[C@H]1O
- Drug uptake (Brain): 0.06 % ID/g
- Drug uptake (Heart): 3.22 % ID/g
- Drug uptake (Spleen): 2.85 % ID/g
- Drug uptake (Intestine): 1.45 % ID/g
- Drug uptake (Thymus): 0.65 % ID/g
- Drug uptake (Blood): 0.47 % ID/g
- Drug uptake (Lung): 9.15 % ID/g
- Drug uptake (Kidney): 3.75 % ID/g
- Drug uptake [1]: 6.7 % ID/g
- Drug uptake (Liver): 0.72 % ID/g
